Experimental data reported in patent publication US20220024891A1 (The Board of Regents of the University of Texas System, priority 2018, published 2022).
Read-outs that look alike come from different tables or passages of the source.

Experiments:
DLD-1 cells = experiment: Sensitivity of DLD-1 versus HCT-116 cells to EBP inhibitors; format: cell-based, human; conditions: varying doses
[1] = Mouse PK analysis, plasma; format: in vivo; conditions: for Cmax: female, CD-1, mouse, plasma, dosed intravenously (i.v.)
[2] = Mouse PK analysis, large intestine; format: in vivo; conditions: for AUC(0-t): female, CD-1, mouse, large intestine, read-out: Large Intestinal pK AUClast (converted)

| Structure (SMILES) | melting point | further results |
| --- | --- | --- |
| COc1ccc2c(c1)CCC(c1ccccc1)=C2c1ccc(OCCN2CCCC2)cc1 [Nafoxidine, nafoxidine] |  | selective sensitivity of DLD-1 versus HCT-116 cells (DLD-1 cells): selectively sensitive |
| COc1ccc(S(=O)(=O)N2CCC(N3CCC(C)CC3)CC2)cc1 [compound 6, 1′-((4-methoxyphenyl)sulfonyl)-4-methyl-1,4′-bipiperidine] |  | Plasma pK AUClast (ng · min/mL) ([1]; ip, 10 mg/kg): 104,103 ng · min/mL; Plasma pK Cmax (ng/mL) ([1]; ip, 10 mg/kg): 2,390 ng/mL; Plasma pK Tmax (min) ([1]; ip, 10 mg/kg): 10 min; Plasma pK Vz (mL) ([1]; ip, 10 mg/kg): 162 mL; AUC(0-t) ([2]; ip, 10 mg/kg): 12300 ng·h/mL |
| CC1CCN(C2CCN(S(=O)(=O)c3ccc(Br)cc3OC(F)(F)F)CC2)CC1 [compound 45, 1′-((4-Bromo-2-(trifluoromethoxy)phenyl)sulfonyl)-4-methyl-1,4′-bipiperidine] | 108 to 110 °C |  |
| CC1CCN(C2CCN(S(=O)(=O)c3ccc(OC(F)F)cc3)CC2)CC1 [compound 22, 1′-((4-(Difluoromethoxy)phenyl)sulfonyl)-4-methyl-1,4′-bipiperidine] | 132 to 135 °C | oral bioavailablity ([1]; 20 mg/kg): 52%; Cmax ([1]; iv): 191 to 742 ng/mL; Plasma pK AUClast (ng · min/mL) ([1]; ip, 10 mg/kg): 205,914 ng · min/mL; Plasma pK Cmax (ng/mL) ([1]; ip, 10 mg/kg): 1,117 ng/mL; Plasma pK Tmax (min) ([1]; ip, 10 mg/kg): 10 min; Plasma pK Vz (mL) ([1]; ip, 10 mg/kg): 156 mL; Plasma pK AUClast (ng · min/mL) ([1]; iv, 5 mg/kg): 197,571 ng · min/mL; Plasma pK Cmax (ng/mL) ([1]; iv, 5 mg/kg): 742 ng/mL; Plasma pK Tmax (min) ([1]; iv, 5 mg/kg): 10 min; Plasma pK Vz (mL) ([1]; iv, 5 mg/kg): 135 mL; Plasma pK AUClast (ng · min/mL) ([1]; po, 20 mg/kg): 328,296 ng · min/mL; Plasma pK Cmax (ng/mL) ([1]; po, 20 mg/kg): 691 ng/mL; Plasma pK Vz (mL) ([1]; po, 20 mg/kg): 153 mL; AUC(0-t) ([2]; ip, 10 mg/kg): 13200 ng·h/mL; AUC(0-t) ([2]; iv, 5 mg/kg): 8530 ng·h/mL; AUC(0-t) ([2]; po, 20 mg/kg): 14800 ng·h/mL; Large Intestinal pK Tmax (min) ([2]; po, 20 mg/kg): 10 min |
| CC1CCN(C2CCN(S(=O)(=O)c3ccc(Br)cc3)CC2)CC1 [compound 17, 1′-((4-Bromophenyl)sulfonyl)-4-methyl-1,4′-bipiperidine] | 165 to 168 °C |  |
| CC1CCN(C2CCN(S(=O)(=O)c3ccc(Cl)c(Cl)c3)CC2)CC1 [compound 40, 1′-((3,4-Dichlorophenyl)sulfonyl)-4-methyl-1,4′-bipiperidine] | 160 to 162 °C |  |
| Cc1ccc(S(=O)(=O)N2CCC(N3CCC(C)CC3)CC2)cc1 [compound 11, 4-Methyl-1′-tosyl-1,4′-bipiperidine] | 139 to 142 °C |  |
| Cc1cc(C)c(S(=O)(=O)N2CCC(N3CCC(C)CC3)CC2)c(C)c1 [compound 47, 1′-(Mesitylsulfonyl)-4-methyl-1,4′-bipiperidine] | 62 to 65 °C |  |
| CC1CCN(C2CCN(S(=O)(=O)c3cccc(C(F)(F)F)c3)CC2)CC1 [compound 27, 4-Methyl-1′-((3-(trifluoromethyl)phenyl)sulfonyl)-1,4′-bipiperidine] | 123 to 125 °C |  |
| CC1CCN(C2CCN(S(=O)(=O)c3cccc(Br)c3)CC2)CC1 [compound 29, 1′-((3-Bromophenyl)sulfonyl)-4-methyl-1,4′-bipiperidine] | 125 to 126 °C |  |
| CC1CCN(C2CCN(S(=O)(=O)c3ccc(Cl)cc3)CC2)CC1 [compound 16, 1′-((4-Chlorophenyl)sulfonyl)-4-methyl-1,4′-bipiperidine] | 152 to 155 °C | Cmax ([1]; iv): 191 to 742 ng/mL; Plasma pK AUClast (ng · min/mL) ([1]; iv, 10 mg/kg): 21,581 ng · min/mL; Plasma pK Cmax (ng/mL) ([1]; iv, 10 mg/kg): 191 ng/mL; Plasma pK Tmax (min) ([1]; iv, 10 mg/kg): 30 min; Plasma pK Vz (mL) ([1]; iv, 10 mg/kg): 1243 mL; AUC(0-t) ([2]; iv, 10 mg/kg): 4380 ng·h/mL; Large Intestinal pK Tmax (min) ([2]; iv, 10 mg/kg): 10 min |
| CCCCOc1ccc(S(=O)(=O)N2CCC(N3CCC(C)CC3)CC2)cc1 [compound 19, 1′-((4-Butoxyphenyl)sulfonyl)-4-methyl-1,4′-bipiperidine] | 137 to 139 °C |  |
| CC1CCN(C2CCN(S(=O)(=O)c3cc(Cl)cc(Cl)c3)CC2)CC1 [compound 42, 1′-((3,5-Dichlorophenyl)sulfonyl)-4-methyl-1,4′-bipiperidine] | 128 to 131 °C |  |
| CC1CCN(C2CCN(S(=O)(=O)c3ccc(Cl)c(C(F)(F)F)c3)CC2)CC1 [compound 39, 1′-((4-Chloro-3-(trifluoromethyl)phenyl)sulfonyl)-4-methyl-1,4′-bipiperidine] | 118 to 120 °C |  |
| COc1ccc(OC)c(S(=O)(=O)N2CCC(N3CCC(C)CC3)CC2)c1 [compound 32, 1′-((2,5-Dimethoxyphenyl)sulfonyl)-4-methyl-1,4′-bipiperidine] | 75 to 78 °C |  |
| CC1CCN(C2CCN(S(=O)(=O)c3cc(F)c(Br)c(F)c3)CC2)CC1 [compound 50, 1′-((4-Bromo-3,5-difluorophenyl)sulfonyl)-4-methyl-1,4′-bipiperidine] | 161 to 163 °C |  |
| CC1CCN(C2CCN(S(=O)(=O)c3ccc(-c4ccccc4)cc3)CC2)CC1 [compound 56, 1′-([1,1′-Biphenyl]-4-ylsulfonyl)-4-methyl-1,4′-bipiperidine] | 178 to 181 °C |  |
| CC1CCN(C2CCN(S(=O)(=O)c3ccc(Cl)cc3Cl)CC2)CC1 [compound 41, 1′-((2,4-Dichlorophenyl)sulfonyl)-4-methyl-1,4′-bipiperidine] | 75 to 78 °C |  |
| CC1CCN(C2CCN(S(=O)(=O)c3ccc(F)cc3F)CC2)CC1 [compound 44, 1′-((2,4-Difluorophenyl)sulfonyl)-4-methyl-1,4′-bipiperidine] | 165 to 168 °C |  |
| CC1CCN(C2CCN(S(=O)(=O)c3ccc([N+](=O)[O-])c(C(F)(F)F)c3)CC2)CC1 [compound 35, 4-Methyl-1′-((4-nitro-3-(trifluoromethyl)phenyl)sulfonyl)-1,4′-bipiperidine] | 175 to 178 °C |  |
| CCc1ccc(S(=O)(=O)N2CCC(N3CCC(C)CC3)CC2)cc1 [compound 12, 1′-((4-Ethylphenyl)sulfonyl)-4-methyl-1,4′-bipiperidine] | 108 to 110 °C |  |

Now from value to compound, other results behind:

| melting point | Structure (SMILES) | further results |
| --- | --- | --- |
| 122 to 124 °C | Cc1cc(C)c(S(=O)(=O)N2CCC(C(=O)N3CCC(C)CC3)CC2)c(C)c1 [compound 113, (1-(Mesitylsulfonyl)piperidin-4-yl 4-methylpiperidin-1-yl)methanone] |  |
| 141 to 143 °C | CC1CCN(C2CCN(S(=O)(=O)c3cnc(Cl)s3)CC2)CC1 [compound 80, 2-Chloro-5-((4-methyl-[1,4′-bipiperidin]-1′-yl)sulfonyl)thiazole] |  |
| 82 to 85 °C | Cc1cc(C)c(S(=O)(=O)N2CCC(N3CCC(CCO)CC3)CC2)c(C)c1 [compound 100, 2-(1′-(Mesitylsulfonyl)-[1,4′-bipiperidin]-4-yl)ethanol] |  |
| 88 to 90 °C | Cc1cc(C)c(S(=O)(=O)N2CCC(c3ccccc3)CC2)c(C)c1 [compound 116, 1-(Mesitylsulfonyl)-4-phenylpiperidine] |  |
| 87 to 90 °C | Cc1ccc(C2CCN(S(=O)(=O)c3c(C)cc(C)cc3C)CC2)cc1 [compound 115, 1-(Mesitylsulfonyl)-4-(p-tolyl)piperidine] |  |
| 144 to 147 °C | CC1CCN(C2CCN(S(=O)(=O)c3cccnc3)CC2)CC1 [compound 71, 4-Methyl-1′-(pyridin-3-ylsulfonyl)-1,4′-bipiperidine] |  |
| 110 to 112 °C | CC1CCN(C2CCN(S(=O)(=O)c3cccc(-c4ccccc4C(F)(F)F)c3)CC2)CC1 [compound 68, 4-Methyl-1′-((2′-(trifluoromethyl)-[1,1′-biphenyl]-3-yl)sulfonyl)-1,4′-bipiperidine] |  |
| 148 to 151 °C | Cc1ccc(NC2CCN(S(=O)(=O)c3c(C)cc(C)cc3C)CC2)cc1 [compound 114, 1-(Mesitylsulfonyl)-N-(p-tolyl)piperidin-4-amine] |  |
| 139 to 141 °C | CC1CCN(C2CCN(S(=O)(=O)c3sc(Cl)nc3C3CC3)CC2)CC1 [compound 82, 2-Chloro-4-cyclopropyl-5-((4-methyl-[1,4′-bipiperidin]-1′-yl)sulfonyl)thiazole] |  |
| 117 to 119 °C | Cc1nc(Cl)sc1S(=O)(=O)N1CCC(N2CCC(C)CC2)CC1 [compound 81, 2-Chloro-4-methyl-5-((4-methyl-[1,4′-bipiperidin]-1′-yl)sulfonyl)thiazole] |  |
| 120 to 123 °C | Cc1cc(C)c(S(=O)(=O)N2CCC(N3CCC(O)CC3)CC2)c(C)c1 [compound 101, 1′-(Mesitylsulfonyl)-[1,4′-bipiperidin]-4-ol] |  |
| 88 to 92 °C | Cc1cc(C)c(S(=O)(=O)N2CCC(NC3CCCC3)CC2)c(C)c1 [compound 132, N-cyclopentyl-1-(mesitylsulfonyl)piperidin-4-amine] |  |
| 141 to 144 °C | Cc1cc(C)c(S(=O)(=O)N2CCC(N3CCC(c4ccccc4)CC3)CC2)c(C)c1 [compound 111, 1′-(Mesitylsulfonyl)-4-phenyl-1,4′-bipiperidine] |  |
| 171 to 173 °C | CC1CCN(C2CCN(S(=O)(=O)c3cncc(Br)c3)CC2)CC1 [compound 75, 1′-((5-Bromopyridin-3-yl)sulfonyl)-4-methyl-1,4′-bipiperidine] |  |
| 124 to 126 °C | CC1CCN(C2CCN(S(=O)(=O)c3cccc(-c4ccc(Cl)cc4)c3)CC2)CC1 [compound 62, 1′-((4′-Chloro-[1,1′-biphenyl]-3-yl)sulfonyl)-4-methyl-1,4′-bipiperidine] |  |
| 205 to 207 °C | CC1CCN(C2CCN(S(=O)(=O)c3ccc(-c4ccc(Cl)cc4)cc3)CC2)CC1 [compound 57, 1′-((4′-Cloro-[1,1′-biphenyl]-4-yl)sulfonyl)-4-methyl-1,4′-bipiperidine] |  |
| 153 to 156 °C | CC1CCN(C2CCN(S(=O)(=O)c3nccn3C)CC2)CC1 [compound 77, 4-Methyl-1′-((1-methyl-1H-imidazol-2-yl)sulfonyl)-1,4′-bipiperidine] |  |
| 103 to 105 °C | Cc1cc(C)c(S(=O)(=O)c2ccc(N3CCC(C)CC3)cc2)c(C)c1 [compound 125, 1-(4-(Mesitylsulfonyl)phenyl)-4-methylpiperidine] |  |
